Data reported in ChEMBL document CHEMBL3885881, “DrugMatrix”.

Organism: Rattus norvegicus
Experiment: DrugMatrix - Regimen: Daily Repeat
Format: toxicity, organism-based, Sprague-Dawley
Set-up: regimen Daily Repeat, gender Male, age 6-8 weeks
Details: in vivo, po, route oral GAVAGE, […]; for ABSOLUTE BASOPHIL / ABSOLUTE EOSINOPHIL / ABSOLUTE LYMPHOCYTE / ABSOLUTE MONOCYTE / ABSOLUTE SEGMENTED NEUTROPHIL / BASOPHIL / EOSINOPHIL / ERYTHROCYTE COUNT / HEMATOCRIT / HEMOGLOBIN / LEUKOCYTE COUNT / LYMPHOCYTE / MEAN CORPUSCULAR HEMOGLOBIN / MEAN CORPUSCULAR VOLUME / MONOCYTE / NEUTROPHIL / NUCLEATED RED BLOOD CELLS / PLATELET COUNT: tissue Blood; for ALANINE AMINOTRANSFERASE / ALBUMIN / ALKALINE PHOSPHATASE / ASPARTATE AMINOTRANSFERASE / BLOOD UREA NITROGEN / CARBON DIOXIDE / CHLORIDE / CHOLESTEROL / CREATINE PHOSPHOKINASE / CREATININE / GLUCOSE / LACTATE DEHYDROGENASE / LIPASE / PHOSPHORUS / POTASSIUM / SODIUM / TOTAL BILIRUBIN / TOTAL PROTEIN / URIC ACID: tissue Plasma
[1] = 0 mg/kg, 72 h, dose level Control, time 3 day
[2] = 0 mg/kg, 120 h, dose level Control, time 5 day
[3] = 70 mg/kg, 72 h, dose level M1, time 3 day

CCCCCCCCc1ccc(O)cc1 [4-OCTYLPHENOL]
ABSOLUTE BASOPHIL [1]: 0 CELLS/uL | ABSOLUTE EOSINOPHIL [1]: 0 CELLS/uL | ABSOLUTE LYMPHOCYTE [1]: 11091.17 CELLS/uL | ABSOLUTE MONOCYTE [1]: 172.17 CELLS/uL | ABSOLUTE SEGMENTED NEUTROPHIL [1]: 1186.67 CELLS/uL | BASOPHIL [1]: 0% | EOSINOPHIL [1]: 0% | ERYTHROCYTE COUNT [1]: 5.87 x10E6/uL | HEMATOCRIT [1]: 36.87% | HEMOGLOBIN [1]: 14.03 G/DL | LEUKOCYTE COUNT [1]: 12.45 x10E3/uL | LYMPHOCYTE [1]: 88.67% | MEAN CORPUSCULAR HEMOGLOBIN [1]: 23.93 pg | MEAN CORPUSCULAR VOLUME [1]: 62.73 fL | MONOCYTE [1]: 1.5% | NEUTROPHIL [1]: 9.83% | NUCLEATED RED BLOOD CELLS [1]: 0 /100WBC | PLATELET COUNT [1]: 1150.33 x10E3/uL | ALANINE AMINOTRANSFERASE [1]: 67.17 u/L | ALBUMIN [1]: 4.03 G/DL | ALKALINE PHOSPHATASE [1]: 462.5 u/L | ASPARTATE AMINOTRANSFERASE [1]: 88 u/L | BLOOD UREA NITROGEN [1]: 13.17 mg/dL | CARBON DIOXIDE [1]: 29.33 mmol/L | CHLORIDE [1]: 101 MEQ/L | CHOLESTEROL [1]: 69.17 mg/dL | CREATINE PHOSPHOKINASE [1]: 292.5 u/L | CREATININE [1]: 0.17 mg/dL | GLUCOSE [1]: 167.5 mg/dL | LACTATE DEHYDROGENASE [1]: 198.5 u/L | LIPASE [1]: 10.67 u/L | PHOSPHORUS [1]: 11.73 mg/dL | POTASSIUM [1]: 5.91 MEQ/L | SODIUM [1]: 143.3 MEQ/L | TOTAL BILIRUBIN [1]: 0.18 mg/dL | TOTAL PROTEIN [1]: 5.7 G/DL | URIC ACID [1]: 1.3 mg/dL | ABSOLUTE BASOPHIL [2]: 0 CELLS/uL | ABSOLUTE EOSINOPHIL [2]: 64.33 CELLS/uL | ABSOLUTE LYMPHOCYTE [2]: 12494.67 CELLS/uL | ABSOLUTE MONOCYTE [2]: 117 CELLS/uL | ABSOLUTE SEGMENTED NEUTROPHIL [2]: 1340.67 CELLS/uL | BASOPHIL [2]: 0% | EOSINOPHIL [2]: 0.33% | ERYTHROCYTE COUNT [2]: 5.82 x10E6/uL | HEMATOCRIT [2]: 36.97% | HEMOGLOBIN [2]: 14.18 G/DL | LEUKOCYTE COUNT [2]: 14.02 x10E3/uL | LYMPHOCYTE [2]: 89% | MEAN CORPUSCULAR HEMOGLOBIN [2]: 24.42 pg | MEAN CORPUSCULAR VOLUME [2]: 63.52 fL | MONOCYTE [2]: 0.83% | NEUTROPHIL [2]: 9.83% | NUCLEATED RED BLOOD CELLS [2]: 0 /100WBC | PLATELET COUNT [2]: 1097.83 x10E3/uL | ALANINE AMINOTRANSFERASE [2]: 58.83 u/L | ALBUMIN [2]: 3.92 G/DL | ALKALINE PHOSPHATASE [2]: 414.17 u/L | ASPARTATE AMINOTRANSFERASE [2]: 89.17 u/L | BLOOD UREA NITROGEN [2]: 16.83 mg/dL | CARBON DIOXIDE [2]: 29.17 mmol/L | CHLORIDE [2]: 100.33 MEQ/L | CHOLESTEROL [2]: 54.5 mg/dL | CREATINE PHOSPHOKINASE [2]: 386.17 u/L | CREATININE [2]: 0.23 mg/dL | GLUCOSE [2]: 184.17 mg/dL | LACTATE DEHYDROGENASE [2]: 229.17 u/L | LIPASE [2]: 10.83 u/L | PHOSPHORUS [2]: 10.88 mg/dL | POTASSIUM [2]: 5.97 MEQ/L | SODIUM [2]: 142.2 MEQ/L | TOTAL BILIRUBIN [2]: 0.12 mg/dL | TOTAL PROTEIN [2]: 5.63 G/DL | URIC ACID [2]: 1.55 mg/dL | ABSOLUTE BASOPHIL [3]: 0 CELLS/uL | ABSOLUTE EOSINOPHIL [3]: 0 CELLS/uL | ABSOLUTE LYMPHOCYTE [3]: 11265.33 CELLS/uL | ABSOLUTE MONOCYTE [3]: 137 CELLS/uL | ABSOLUTE SEGMENTED NEUTROPHIL [3]: 1431 CELLS/uL | BASOPHIL [3]: 0% | EOSINOPHIL [3]: 0% | ERYTHROCYTE COUNT [3]: 5.68 x10E6/uL | HEMATOCRIT [3]: 36.37% | HEMOGLOBIN [3]: 13.93 G/DL | LEUKOCYTE COUNT [3]: 12.83 x10E3/uL | LYMPHOCYTE [3]: 88% | MEAN CORPUSCULAR HEMOGLOBIN [3]: 24.57 pg | MEAN CORPUSCULAR VOLUME [3]: 64.1 fL | MONOCYTE [3]: 1% | NEUTROPHIL [3]: 11% | NUCLEATED RED BLOOD CELLS [3]: 0 /100WBC | PLATELET COUNT [3]: 1181.67 x10E3/uL | ALANINE AMINOTRANSFERASE [3]: 74 u/L | ALBUMIN [3]: 3.87 G/DL | ALKALINE PHOSPHATASE [3]: 534.33 u/L | ASPARTATE AMINOTRANSFERASE [3]: 88.33 u/L | BLOOD UREA NITROGEN [3]: 15 mg/dL | CARBON DIOXIDE [3]: 27.33 mmol/L | CHLORIDE [3]: 102.33 MEQ/L | CHOLESTEROL [3]: 67 mg/dL | CREATINE PHOSPHOKINASE [3]: 215 u/L | CREATININE [3]: 0.13 mg/dL | GLUCOSE [3]: 152.67 mg/dL | LACTATE DEHYDROGENASE [3]: 181.67 u/L | LIPASE [3]: 10 u/L | PHOSPHORUS [3]: 11.4 mg/dL | POTASSIUM [3]: 5.59 MEQ/L | SODIUM [3]: 144.4 MEQ/L | TOTAL BILIRUBIN [3]: 0.13 mg/dL | TOTAL PROTEIN [3]: 5.53 G/DL | URIC ACID [3]: 1.63 mg/dL
